In PubChem BioAssay AID1259407 (Chemical Carcinogenesis Research Information System (CCRIS), 2018):
Calls of active or inactive are those of the source. No rule for the calls is given here.

System: CCRIS mutagenicity, Ames/micronucleus/aberration tests
Test: CCRIS mutagenicity studies

Measured: mutagenic call

O=P1(N(CCCl)CCCl)NCCCO1 (stereo unspecified)
inactive: End Point: In vivo micronucleus, Test System: Micronucleated hepatocytes, Species: Rat, Strain/Sex: F344/Male, Route: Oral inactive; negative | Test System: AMES SALMONELLA TYPHIMURIUM, Strain/Indicator: TA97, Metabolic Activation: NONE, Method: STANDARD PLATE inactive; negative | Test System: AMES SALMONELLA TYPHIMURIUM, Strain/Indicator: TA97, Metabolic Activation: RAT, LIVER, S-9, PHENOBARBITAL AND ALPHA-NAPHTHOFLAVONE, Method: STANDARD PLATE inactive; negative | Test System: AMES SALMONELLA TYPHIMURIUM, Strain/Indicator: TA98, Metabolic Activation: NONE, Method: PREINCUBATION inactive; negative | Test System: AMES SALMONELLA TYPHIMURIUM, Strain/Indicator: TA98, Metabolic Activation: NONE, Method: SPIRAL ASSAY inactive; negative | Test System: AMES SALMONELLA TYPHIMURIUM, Strain/Indicator: TA98, Metabolic Activation: NONE, Method: STANDARD PLATE inactive; negative | Test System: AMES SALMONELLA TYPHIMURIUM, Strain/Indicator: TA98, Metabolic Activation: RAT, LIVER, S-9, AROCLOR 1254, Method: SPIRAL ASSAY inactive; negative | Test System: AMES SALMONELLA TYPHIMURIUM, Strain/Indicator: TA98, Metabolic Activation: RAT, LIVER, S-9, PHENOBARBITAL AND ALPHA-NAPHTHOFLAVONE, Method: STANDARD PLATE inactive; negative | Test System: AMES SALMONELLA TYPHIMURIUM, Strain/Indicator: TA98, Metabolic Activation: S-9, Method: PREINCUBATION inactive; negative | Test System: AMES SALMONELLA TYPHIMURIUM, Strain/Indicator: TA98, Metabolic Activation: S-9, Method: STANDARD PLATE inactive; negative | Test System: AMES SALMONELLA TYPHIMURIUM, Strain/Indicator: TA100, Metabolic Activation: NONE, Method: PREINCUBATION inactive; negative | Test System: AMES SALMONELLA TYPHIMURIUM, Strain/Indicator: TA100, Metabolic Activation: RAT, LIVER, PARENCHYMAL CELLS (CRYOPRESERVED), Method: PREINCUBATION inactive; negative | Test System: AMES SALMONELLA TYPHIMURIUM, Strain/Indicator: TA1535, Metabolic Activation: RAT (PREGNANT FEMALE), LIVER, HEPATOCYTES, Method: STANDARD PLATE inactive; negative | Test System: AMES SALMONELLA TYPHIMURIUM, Strain/Indicator: TA1537, Metabolic Activation: NONE, Method: SPIRAL ASSAY inactive; negative | Test System: AMES SALMONELLA TYPHIMURIUM, Strain/Indicator: TA1537, Metabolic Activation: NONE, Method: STANDARD PLATE inactive; negative | Test System: AMES SALMONELLA TYPHIMURIUM, Strain/Indicator: TA1537, Metabolic Activation: RAT, LIVER, S-9, AROCLOR 1254, Method: SPIRAL ASSAY inactive; negative | Test System: AMES SALMONELLA TYPHIMURIUM, Strain/Indicator: TA1537, Metabolic Activation: S-9, Method: STANDARD PLATE inactive; negative | Test System: CHINESE HAMSTER V-79, Strain/Indicator: V-79/6-THIOGUANINE, Metabolic Activation: NONE, Method: SUSPENSION/PLATE inactive; negative | Test System: E. COLI, Strain/Indicator: WP2 UVRA, Metabolic Activation: HAMSTER, LIVER, S-9, AROCLOR 1254, Method: STANDARD PLATE inactive; negative | Test System: E. COLI, Strain/Indicator: WP2 UVRA, Metabolic Activation: HAMSTER, LIVER, S-9, Method: STANDARD PLATE inactive; negative | Test System: E. COLI, Strain/Indicator: WP2 UVRA, Metabolic Activation: MOUSE, LIVER, S-9, AROCLOR 1254, Method: STANDARD PLATE inactive; negative | Test System: E. COLI, Strain/Indicator: WP2 UVRA, Metabolic Activation: MOUSE, LIVER, S-9, Method: STANDARD PLATE inactive; negative | Test System: E. COLI, Strain/Indicator: WP2 UVRA, Metabolic Activation: NONE, Method: STANDARD PLATE inactive; negative | Test System: E. COLI, Strain/Indicator: WP2 UVRA, Metabolic Activation: RAT, LIVER, S-9, AROCLOR 1254, Method: STANDARD PLATE inactive; negative | Test System: E. COLI, Strain/Indicator: WP2 UVRA, Metabolic Activation: RAT, LIVER, S-9, Method: STANDARD PLATE inactive; negative
active: End Point: IN VITRO CHROMOSOMAL ABERRATIONS, Test System: CHL/IU CELLS, Metabolic Activation: RAT, LIVER, S-9, PHENOBARBITAL AND 5,6-BENZOFLAVONE active; positive (structural changes) | End Point: IN VITRO CHROMOSOMAL ABERRATIONS, Test System: HUMAN LYMPHOCYTES, Metabolic Activation: RAT LIVER S-9, AROCLOR 1254 active; positive | End Point: IN VITRO MICRONUCLEUS, Test System: BOVINE LYMPHOCYTES, Metabolic Activation: S-9 MIX, AROCLOR 1254 active; positive | End Point: IN VITRO MICRONUCLEUS, Test System: CHL/IU CELLS, Metabolic Activation: RAT, LIVER, S-9, PHENOBARBITAL AND 5,6-BENZOFLAVONE active; positive | End Point: IN VITRO MICRONUCLEUS, Test System: CHO CELLS, Metabolic Activation: RAT, LIVER, S-9, AROCLOR 1254 active; positive | End Point: IN VIVO MICRONUCLEUS, Test System: BLOOD ERYTHROCYTES, Species: MOUSE, Strain/Sex: CD-1/MALE, Route: ORAL active; positive | End Point: IN VIVO MICRONUCLEUS, Test System: BONE MARROW CELLS, Species: MOUSE, Strain/Sex: CD-1/MALE, Route: GAVAGE active; positive | End Point: IN VIVO MICRONUCLEUS, Test System: BONE MARROW ERYTHROCYTES, Species: HAMSTER, Strain/Sex: SYRIAN/MALE, Route: INTRAPERITONEAL active; positive | End Point: IN VIVO MICRONUCLEUS, Test System: BONE MARROW POLYCHROMATIC ERYTHROCYTES, Species: MOUSE, Strain/Sex: SWISS/MALE, Route: IP active; positive | End Point: In vivo chromosomal aberrations, Test System: Bone marrow cells, Species: Rat, Strain/Sex: Wistar/Male, Route: Intraperitoneal injection active; positive (structural changes: gaps, breaks). effect by 100 or 200 mg/kg alpha-li | End Point: In vivo micronucleus, Test System: Bone marrow erythrocytes, Species: Mouse, Strain/Sex: NMRI/Male, Route: Intraperitoneal active; positive (hawthorn extract significantly reduced micronucleated polychromatic er | End Point: In vivo micronucleus, Test System: Bone marrow erythrocytes, Species: Mouse, Strain/Sex: Swiss/Male, Route: Intraperitoneal active; positive (pue or 4-nc showed dose-dependent protective effect against cyclophosp | End Point: In vivo micronucleus, Test System: Peripheral blood and bone marrow erythrocytes, Species: Dog, Strain/Sex: Beagle/Male and female, Route: Intravenous active; positive. evaluations by flow cytometry and manual counting; multi-laboratory st | End Point: MICRONUCLEUS, Test System: BONE MARROW, Species: RAT, Strain/Sex: WISTAR, Route: INTRAPERITONEAL active; positive | Test System: AMES SALMONELLA TYPHIMURIUM, Strain/Indicator: TA100, Metabolic Activation: MOUSE, LIVER, S-9, PHENOBARBITAL AND BETA-NAPHTHOFLAVONE, Method: STANDARD PLATE active; positive | Test System: AMES SALMONELLA TYPHIMURIUM, Strain/Indicator: TA100, Metabolic Activation: MOUSE, LIVER, S-9, PHENOBARBITAL, BETA-NAPHTHOFLAVONE, ISOSAFROLE, ETHANOL, PREGNENOLONE AND 16ALPHA-CARBONITRILE, Method: STANDARD PLATE active; positive | Test System: AMES SALMONELLA TYPHIMURIUM, Strain/Indicator: TA100, Metabolic Activation: NONE, Method: SPIRAL ASSAY active; positive | Test System: AMES SALMONELLA TYPHIMURIUM, Strain/Indicator: TA100, Metabolic Activation: RAT, LIVER, PARENCHYMAL CELLS (FRESHLY ISOLATED OR STORED FOR 1 D), Method: PREINCUBATION active; positive | Test System: AMES SALMONELLA TYPHIMURIUM, Strain/Indicator: TA100, Metabolic Activation: RAT, LIVER, S-9, AROCLOR 1254, Method: SPIRAL ASSAY active; positive | Test System: AMES SALMONELLA TYPHIMURIUM, Strain/Indicator: TA100, Metabolic Activation: RAT, LIVER, S-9, AROCLOR 1254, Method: STANDARD PLATE active; positive | Test System: AMES SALMONELLA TYPHIMURIUM, Strain/Indicator: TA100, Metabolic Activation: RAT, LIVER, S-9, PHENOBARBITAL AND ALPHA-NAPHTHOFLAVONE, Method: STANDARD PLATE active; positive | Test System: AMES SALMONELLA TYPHIMURIUM, Strain/Indicator: TA100, Metabolic Activation: RAT,LIVER, HEPATOCYTES, PHENOBARBITAL, Method: PREINCUBATION active; positive | Test System: AMES SALMONELLA TYPHIMURIUM, Strain/Indicator: TA100, Metabolic Activation: S-9, Method: PREINCUBATION active; positive | Test System: AMES SALMONELLA TYPHIMURIUM, Strain/Indicator: TA100, Metabolic Activation: S-9, Method: STANDARD PLATE active; positive | Test System: AMES SALMONELLA TYPHIMURIUM, Strain/Indicator: TA1535, Metabolic Activation: NONE, Method: SPIRAL ASSAY active; positive | Test System: AMES SALMONELLA TYPHIMURIUM, Strain/Indicator: TA1535, Metabolic Activation: RAT (MALE), LIVER, HEPATOCYTES, AROCLOR 1254, Method: STANDARD PLATE active; positive | Test System: AMES SALMONELLA TYPHIMURIUM, Strain/Indicator: TA1535, Metabolic Activation: RAT (MALE), LIVER, HEPATOCYTES, Method: STANDARD PLATE active; positive | Test System: AMES SALMONELLA TYPHIMURIUM, Strain/Indicator: TA1535, Metabolic Activation: RAT (PREGNANT FEMALE), LIVER, HEPATOCYTES, AROCLOR 1254, Method: STANDARD PLATE active; positive | Test System: AMES SALMONELLA TYPHIMURIUM, Strain/Indicator: TA1535, Metabolic Activation: RAT, LIVER, HEPATOCYTES, PHENOBARBITAL, Method: PREINCUBATION active; positive | Test System: AMES SALMONELLA TYPHIMURIUM, Strain/Indicator: TA1535, Metabolic Activation: RAT, LIVER, S-9, AROCLOR 1254, Method: PREINCUBATION active; positive | Test System: AMES SALMONELLA TYPHIMURIUM, Strain/Indicator: TA1535, Metabolic Activation: RAT, LIVER, S-9, AROCLOR 1254, Method: SPIRAL ASSAY active; positive | Test System: AMES SALMONELLA TYPHIMURIUM, Strain/Indicator: TA1535, Metabolic Activation: RAT, LIVER, S-9, PHENOBARBITAL AND ALPHA-NAPHTHOFLAVONE, Method: STANDARD PLATE active; positive | Test System: AMES SALMONELLA TYPHIMURIUM, Strain/Indicator: TA1535, Metabolic Activation: RAT, LIVER, S-9, PHENOBARBITAL, Method: STANDARD PLATE active; positive | Test System: AMES SALMONELLA TYPHIMURIUM, Strain/Indicator: TA1535, Metabolic Activation: RAT, LIVER, S-9, Method: STANDARD PLATE active; positive | Test System: CHINESE HAMSTER V-79, Strain/Indicator: V-79/6-THIOGUANINE, Metabolic Activation: RAT, LIVER, HEPATOCYTES, Method: SUSPENSION/PLATE active; positive | Test System: E. COLI, Strain/Indicator: WP2 (HCR), Metabolic Activation: S-9, Method: STANDARD PLATE active; positive | Test System: E. COLI, Strain/Indicator: WP2, Metabolic Activation: NONE, Method: FLUCTUATION (MICROTITER) active; positive | Test System: E. COLI, Strain/Indicator: WP2 UVRA, Metabolic Activation: NONE, Method: FLUCTUATION (MICROTITER) active; positive | Test System: MOUSE LYMPHOMA, Strain/Indicator: L5178Y (TK+/TK-), Metabolic Activation: NONE, Method: SUSPENSION/PLATE active; positive | Test System: UDS RAT HEPATOCYTES, Strain/Indicator: THY INCORP, Metabolic Activation: NONE, Method: AUTORADIOGRAPHY active; positive | Test System: UDS RAT HEPATOCYTES, Strain/Indicator: THY INCORP, Metabolic Activation: NONE, Method: AUTORADIOGRAPHY (SERUM-FREE MEDIA) active; positive
